PubChem BioAssay AID1918952 (Molecular Pharmacology Branch, DTP, NCI, 2023)
Several values for one entry are separate records, joined by “and”; a condition that tells them apart may be missing. Identical values can stand only once.

Tested on: LG0703-F948-PDC complex spheroid viability
Test: Anticancer human tumor LG0703-F948-PDC patient-derived lung adenocarcinoma cell line growth inhibition
Settings: for viability, T/C: stronger effect = lower value
Description: Multicellular complex tumor spheroid response to LSD1 Inhibitor Iadademstat in combination with a variety of drugs and investigational agents in selected tumor cell lines
The current study was undertaken to assess response to LSD1 inhibitors in combination with standard-of-care drugs and investigational agents in solid tumor complex spheroid models as well as in the K-562 leukemia. Complex spheroids include a stromal component modeled by human endothelial cells (HUVEC) and fibroblasts modeled by human mesenchymal stem cells (MSCs). The concentration ranges selected for each drug and investigational agent were based upon clinically achievable concentrations if the clinical Cmax of the agent was known.
Compounds. The drugs and investigational agents used in this study are listed on Table 1. All of the agents used, including staurosporine (NSC755774) and gemcitabine (NSC613327), were obtained from the Developmental Therapeutics Program, NCI. FDA-approved anticancer drugs are available from the NCI at http://dtp.nci.nih.gov/branches/dscb/oncology_drugset_explanation.html. Drugs and investigational agents were >95% pure by proton nuclear magnetic resonance (NMR) and liquid chromatography/mass spectrometry (LC/MS). Stock solutions were prepared at 400x in DMSO, stored at -70 degrees C, and diluted in fresh medium prior to their use. The final concentration of DMSO in cell culture wells never exceeded 0.25% (v/v). The FDA-approved anticancer drug set is available from the Developmental Therapeutics Program at https://dtp.cancer.gov/organization/dscb/obtaining/available_plates.htm. All drugs and investigational agents were tested over a range starting from a high concentration at or near the clinical Cmax and decreasing in half-log increments. If the clinical Cmax for an agent had not been determined, the highest concentration tested was 10 microM.
Cell Lines. The patient-derived cancer cell (PDC) lines: 292921-168-R-J2-PDC, K24384-001-R-PDC, and 521955-158-R2-J5-PDC pancreatic carcinomas, 556581-035-R-J1 ovarian carcinoma, 324938-238-R-J1-PDC, 855422-203-R-J1-PDC and 883617-216-R-J1-PDC urothelial bladder carcinomas, 743489-274-T-PDC renal cell carcinoma, 138582-R-J1 Merkel cell tumor, K60290-347-R-J1 and K57222-313-R-J1-PDC glioblastomas, 653999-131-R-J2-PDC, LG0703-F948-PDC, and 349418-098-R-PDC non-small cell lung carcinomas, 885512-296-R-J2-PDC, 171881-019-R-J1-PDC breast carcinomas and 186277-243-T-J2-PDC and 233499-124-R-J2-PDC colon carcinomas were obtained from the NCI Patient-Derived Models Repository (PDMR, https://pdmr.cancer.gov). The established cell lines NCI/ADR-RES (RRID:CVCL_14520 and OVCAR-5 (RRID:CVCL_1628) ovarian carcinomas, 786-O (RRID:CVCL_1051) and A498 (RRID:CVCL_A498) renal cell carcinoma, NCI-H211 (ATCC, cat. CRL-5824; RRID:CVCL_1529), NCI-H196 (ATCC, cat. CRL-5823, RRID:CVCL_1509), SW 1271 (ATCC, cat. CRL-2177, RRID:CVCL_1716) and NCI-H1876 (ATCC, cat. CRL-5902, RRID:CVCL_1503) small cell lung carcinomas, MDA-MB-231 (RRID:CVCL_0062) and MDA-MB-468 (RRID:CVCL_0419)breast carcinomas (10-12). Pooled donor human umbilical vein endothelial cells (HUVEC, Lonza, cat. CC-2519) and human mesenchymal stem cells (hMSC, Lonza, cat. PT-2501) were purchased from Lonza (Walkersville, MD).
Cell Culture. All cells were maintained in an incubator at 37 degrees C and 5% CO2 with 95% humidity. The PDC lines were cultured according to standard operating procedures established by the NCI PDMR (https://pdmr.cancer.gov). Briefly all PDCs were thawed and cultured in Matrigel-coated flasks prepared with a working solution of 1X Ham's F-12 nutrient mix, without supplementation (Invitrogen, Waltham, MA, cat. 11765054), 100 U/mL penicillin-streptomycin (Invitrogen, cat. 15140122), and 2.5% Matrigel (Corning Inc., Corning, NY, cat. 354248) for the first three passages. […]

[1] = curve of first compound, second compound 0.1 µM
[2] = curve of first compound, second compound 0.316 µM
[3] = curve of first compound, second compound 1 µM
[4] = curve of first compound, second compound 3.16 µM
[5] = curve of first compound, second compound 10 µM
[6] = second compound 0.1 µM, first compound 0.0316 µM
[7] = second compound 0.1 µM, first compound 0.1 µM
[8] = second compound 0.316 µM, first compound 0.0316 µM
[9] = second compound 0.316 µM, first compound 0.1 µM
[10] = second compound 1 µM, first compound 0.0316 µM
[11] = second compound 1 µM, first compound 0.1 µM
[12] = second compound 3.16 µM, first compound 0.0316 µM
[13] = second compound 3.16 µM, first compound 0.1 µM
[14] = second compound 10 µM, first compound 0.0316 µM
[15] = second compound 10 µM, first compound 0.1 µM
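Note: spheroids exposed to agents for seven days before readout.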
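Throughout, for viability, T/C: 100% = DMSO vehicle control wells as normalization base.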

COc1cc(C2c3cc4c(cc3C(OC3OC5COC(C)OC5C(O)C3O)C3COC(=O)C23)OCO4)cc(OC)c1O (centres undefined)
viability, T/C (compound 0.00949 µM): 91.2% and 110%
viability, T/C (compound 0.03 µM): 86.7% and 112%
viability, T/C (compound 0.0949 µM): 83% and 88.5%
viability, T/C (compound 0.3 µM): 77% and 84.2%
viability, T/C (compound 0.949 µM): 75% and 81.7%
viability, T/C (compound 3 µM): 49.3% and 59.2%
IC50 (curve of compound): > 3 µM

Cn1ncnc1C1c2n[nH]c(=O)c3cc(F)cc(c23)NC1c1ccc(F)cc1 (centres undefined) + NC1CCC(NC2CC2c2ccccc2)CC1
IC50 [1]: > 0.1 µM
IC50 [2]: > 0.1 µM
IC50 [3]: > 0.1 µM
IC50 [4]: > 0.1 µM
IC50 [5]: > 0.1 µM
viability, T/C (second compound 0.1 µM, first compound 0.000316 µM): 102%
viability, T/C (second compound 0.1 µM, first compound 0.001 µM): 96.2%
viability, T/C (second compound 0.1 µM, first compound 0.00316 µM): 93.1%
viability, T/C (second compound 0.1 µM, first compound 0.01 µM): 104%
viability, T/C [6]: 88.4%
viability, T/C [7]: 97.8%
viability, T/C (second compound 0.316 µM, first compound 0.000316 µM): 111%
viability, T/C (second compound 0.316 µM, first compound 0.001 µM): 108%
viability, T/C (second compound 0.316 µM, first compound 0.00316 µM): 95.8%
viability, T/C (second compound 0.316 µM, first compound 0.01 µM): 113%
viability, T/C [8]: 93.1%
viability, T/C [9]: 96.9%
viability, T/C (second compound 1 µM, first compound 0.000316 µM): 113%
viability, T/C (second compound 1 µM, first compound 0.001 µM): 128%
viability, T/C (second compound 1 µM, first compound 0.00316 µM): 116%
viability, T/C (second compound 1 µM, first compound 0.01 µM): 111%
viability, T/C [10]: 115%
viability, T/C [11]: 97.7%
viability, T/C (second compound 3.16 µM, first compound 0.000316 µM): 122%
viability, T/C (second compound 3.16 µM, first compound 0.001 µM): 133%
viability, T/C (second compound 3.16 µM, first compound 0.00316 µM): 115%
viability, T/C (second compound 3.16 µM, first compound 0.01 µM): 123%
viability, T/C [12]: 117%
viability, T/C [13]: 122%
viability, T/C (second compound 10 µM, first compound 0.000316 µM): 108%
viability, T/C (second compound 10 µM, first compound 0.001 µM): 123%
viability, T/C (second compound 10 µM, first compound 0.00316 µM): 115%
viability, T/C (second compound 10 µM, first compound 0.01 µM): 117%
viability, T/C [14]: 111%
viability, T/C [15]: 121%

CC1COCCN1c1cc(-c2ccnn2C)c2ccnc(-c3ccn[nH]3)c2n1 (centres undefined)
viability, T/C (compound 0.00316 µM): 66.6% and 63.7%
viability, T/C (compound 0.01 µM): 59.2% and 61.9%
viability, T/C (compound 0.0316 µM): 47.8% and 42.4%
viability, T/C (compound 0.1 µM): 39.4% and 29.3%
viability, T/C (compound 0.316 µM): 28.8% and 27.1%
viability, T/C (compound 1 µM): 14% and 10.7%
IC50 (curve of compound): 0.029 µM and 0.0197 µM

CC1(C)CCC(CN2CCN(c3ccc(C(=O)NS(=O)(=O)c4ccc(NCC5CCOCC5)c([N+](=O)[O-])c4)c(Oc4cnc5[nH]ccc5c4)c3)CC2)=C(c2ccc(Cl)cc2)C1 + NC1CCC(NC2CC2c2ccccc2)CC1
IC50 [1]: 2.38 µM
IC50 [2]: 2.18 µM
IC50 [3]: 2.55 µM
IC50 [4]: 2.63 µM
IC50 [5]: 2.36 µM
viability, T/C [6]: 107%
viability, T/C [7]: 90.9%
viability, T/C (second compound 0.1 µM, first compound 0.316 µM): 85.2%
viability, T/C (second compound 0.1 µM, first compound 1 µM): 99.4%
viability, T/C (second compound 0.1 µM, first compound 3.16 µM): 34.9%
viability, T/C (second compound 0.1 µM, first compound 10 µM): 2.77%
viability, T/C [8]: 97.3%
viability, T/C [9]: 99.2%
viability, T/C (second compound 0.316 µM, first compound 0.316 µM): 102%
viability, T/C (second compound 0.316 µM, first compound 1 µM): 112%
viability, T/C (second compound 0.316 µM, first compound 3.16 µM): 24.9%
viability, T/C (second compound 0.316 µM, first compound 10 µM): 2.76%
viability, T/C [10]: 100%
viability, T/C [11]: 119%
viability, T/C (second compound 1 µM, first compound 0.316 µM): 117%
viability, T/C (second compound 1 µM, first compound 1 µM): 103%
viability, T/C (second compound 1 µM, first compound 3.16 µM): 37.8%
viability, T/C (second compound 1 µM, first compound 10 µM): 2.92%
viability, T/C [12]: 126%
viability, T/C [13]: 119%
viability, T/C (second compound 3.16 µM, first compound 0.316 µM): 135%
viability, T/C (second compound 3.16 µM, first compound 1 µM): 118%
viability, T/C (second compound 3.16 µM, first compound 3.16 µM): 36.9%
viability, T/C (second compound 3.16 µM, first compound 10 µM): 2.37%
viability, T/C [14]: 112%
viability, T/C [15]: 114%
viability, T/C (second compound 10 µM, first compound 0.316 µM): 104%
viability, T/C (second compound 10 µM, first compound 1 µM): 99.1%
viability, T/C (second compound 10 µM, first compound 3.16 µM): 33.4%
viability, T/C (second compound 10 µM, first compound 10 µM): 2.95%
